Data set [1] deals with HIV-1 BaL (cell-free virus). The data set can be described thus: Single-round infection assay, cell-free virus BaL. The format is cell-based.
Data set [2] deals with Multidrug resistant virus 7324-1. Description: Antiviral activity against multidrug resistant HIV-1 clinical isolate, p24 level (ELISA). The format is cell-based. As to conditions: Table 5, MDR = 7324-1, 6 h incubation then 6 days. For orientation: An ELISA detects its analyte on a solid surface through an enzyme-linked reagent.
Data set [3] deals with Cell-associated HIV-1, SupT1 (IIIB). The data set can be described thus: Single-round infection assay, cell-associated virus SupT1 (IIIB). The format is cell-based.
For data set [4], the system named is HIV-1 IIIB (cell-free virus). The data set can be described thus: microbe, parasite or virus in culture. It is filed as cell-based. As to conditions: for EC50: read-out: EC50 Cell-Free Virus IIIB.
Data set [5] deals with HIV-1 clinical isolate R5 = 92TH014. The data set can be described thus: Antiviral activity against HIV-1 clinical isolate R5, p24 level (ELISA). The format is cell-based. The conditions noted are these: Table 5, 6 h incubation then 6 days.
The next data set concerns CCRF-CEM cell line. The format is cell-based, human. Here is the method:
Cells were incubated with 10 μM of DMSO, FAM, KPH-1.5 and KPH-1.6 for 1 h and then imaged using a light microscope (ZEISS Axioplan 2) equipped with transmitted light microscopy with a differential-interference contrast method and an Achroplan 40× objective. […] The results further confirm the higher cellular uptake of KPH-1.6, a fatty acyl derivative of FLT, in comparison to KPH-1.5 and FAM alone. Similar results were also observed with fluorescein-substituted derivative of 3TC.

The subject of a further data set is H. ducreyi Strain HMC 62. Description: Antibacterial activity (MIC), strain HMC 62. The conditions noted are these: [Haemophilus] ducreyi, read-out: MIC (minimum inhibitory concentration). It is filed as cell-based, Haemophilus ducreyi.
In another data set the test system is H. ducreyi Strain HMC 64. The data set can be described thus: Antibacterial activity (MIC), strain HMC 64. It is filed as cell-based, Haemophilus ducreyi. The conditions noted are these: [Haemophilus] ducreyi, read-out: MIC (minimum inhibitory concentration).
The test system of data set [6] is Multidrug resistant virus 7324-1. The data set can be described thus: Antiviral activity against multidrug resistant HIV, RT endpoint. It is filed as cell-based, HIV-1. As to conditions: Human immunodeficiency virus 1.
Data set [7] concerns HIV-1 clinical isolate R5 = 92TH014. The data set can be described thus: Antiviral activity against HIV-1 clinical isolate R5, RT endpoint. As to conditions: Human immunodeficiency virus 1, Table 2, 6 h incubation then 6 days, read-out: IC50. The format is cell-based.
The next data set deals with H. ducreyi Strain HMC56. The data set can be described thus: Antibacterial activity (MIC), strain HMC56. The format is cell-based, Haemophilus ducreyi. As to conditions: [Haemophilus] ducreyi, read-out: MIC (minimum inhibitory concentration).

Values after ≈ are worked out from the molar mass of the structure shown. Like-named read-outs stand apart in the source and are kept apart here.

Regarding “Sodium Cellulose Sulfate-Acetate-FLT (1.45%) [CS-Ac-FLT]”, the “EC50 Cell-Free Virus BaL” value in data set [1] (Table 4) amounted to 1.5 µg/mL. Further, the results for the IC50 in [2] and in data set [5] were 0.50 µg/mL and 2.67 µg/mL, respectively. The “EC50 Cell-Associated Virus SupT1-IIIB” value in data set [3] (Table 4) stood at 5.8 µg/mL. Moreover, the “EC50 Cell-Free Virus IIIB” value in [4] (Table 4) was 2.3 µg/mL.

In the case of “5(6)-carboxyfluorescein [FAM, reference compound]”, in the data set with CCRF-CEM cell line, the “cell fluorescence by microscopy” value is given as “no significant fluorescence”.

`Cc1ccc(C(=O)Nc2ccc(S(=O)(=O)O)c3cc(S(=O)(=O)O)cc(S(=O)(=O)O)c23)cc1NC(=O)c1cccc(NC(=O)Nc2cccc(C(=O)Nc3cc(C(=O)Nc4ccc(S(=O)(=O)O)c5cc(S(=O)(=O)O)cc(S(=O)(=O)O)c45)ccc3C)c2)c1` [Suramin, reference compound] returned a CC50 in “in vitro” of over 100 µg/mL. The EC50 (commonly the concentration that produces a half-maximal response) was found to be 1 µg/mL (≈ 0.771 µM) in data set [1] (Human immunodeficiency virus 1, BAL, Table 6) and 49.1 µg/mL (≈ 37.8 µM) in [4] (Human immunodeficiency virus 1, IIIB).

In the data set “in vitro”, `Cc1cn([C@H]2C[C@H](N=[N+]=[N-])[C@@H](CO)O2)c(=O)[nH]c1=O` [3′-azido-2′,3′-dideoxythymidine (AZT), 3′-azido-2′,3′-dideoxythymidine, reference compound] returned a CC50 of over 100 µg/mL. Moreover, the results for the MIC in the data set with H. ducreyi Strain HMC 62, in the data set on H. ducreyi Strain HMC 64 and in the data set on H. ducreyi Strain HMC56 were 750 µg/mL (≈ 2810 µM), 500 µg/mL (≈ 1870 µM) and 125 µg/mL (≈ 468 µM), respectively. For the same compound, the IC50 (usually the midpoint of a concentration-inhibition curve) in data set [6] was 0.33 µg/mL (≈ 1.23 µM); in [7], 0.02 µg/mL (≈ 0.0748 µM); in [1] (Human immunodeficiency virus 1, BAL, Table 1, 2 h incubation, wash, 48 h culture, read-out: IC50 Cell-Free Virus BaL) it was 0.8 µg/mL (≈ 2.99 µM); in [3] (Human immunodeficiency virus 1, IIIB, SUP-T1, Table 1, 2 h incubation, wash, 48 h culture, read-out: IC50 Cell-Associated Virus SupT1 (IIIB)), over 100 µg/mL; in [4] (Human immunodeficiency virus 1, IIIB, Table 1, 2 h incubation, wash, 48 h culture, read-out: IC50 Cell-Free Virus IIIB), 9.2 µg/mL (≈ 34.4 µM). The EC50 was 4.2 µg/mL (≈ 15.7 µM) in [1] (Human immunodeficiency virus 1, BAL, Table 4); over 100 µg/mL in [3] (Human immunodeficiency virus 1, IIIB, SUP-T1, Table 4); 2.4 µg/mL (≈ 8.98 µM) in data set [4] (Human immunodeficiency virus 1, IIIB, Table 4).

For “3′-fluoro-2′,3′-dideoxy-5′-O-(12-(N-5(6)carboxylfluoresceinaminododecanoyl)thymidine”, the “cell fluorescence by microscopy” value in the data set with CCRF-CEM cell line is listed as “showed fluorescence”. In data set [4] (Table 1, 2 h incubation, wash, 48 h culture), the “IC50 Cell-Free Virus IIIB” value was 4.3 µg/mL.

Regarding “Sodium Cellulose Sulfate-Acetate-AZT (1.73%) [CS-Ac-AZT]”, the “EC50 Cell-Free Virus BaL” value in [1] (Table 4) turned out to be 8.1 µg/mL. The IC50 in [2] worked out at 4.22 µg/mL; in data set [5], 3.52 µg/mL. The “EC50 Cell-Associated Virus SupT1-IIIB” value in data set [3] (Table 4) is 5.6 µg/mL. Besides, the “EC50 Cell-Free Virus IIIB” value in [4] (Table 4) turned out to be 2.5 µg/mL. Further, the “potency against cell-free virus relative to AZT, in moles” value in data set [4] (based on CS ~2×10^6 Daltons) was 5 orders of magnitude.

These data come from patent publication US9296776B2, “Substituted nucleoside derivatives with antiviral and antimicrobial properties” (Eastern Virginia Medical School, priority 2007, dated 2016).
